ChEMBL document CHEMBL4616648, “Irijimasides A-E, Macrolide Glycosides from an Okeania sp. Marine Cyanobacterium” (J Nat Prod, 2020)

What was measured:
Mus musculus = organism: Mus musculus; assay: Inhibition of RANKL-induced osteoclastogenesis in mouse RAW264 cells assessed as reduction in TRAP activity incubated for 4 days; assay type: functional, cell-based
[1] = Cytotoxicity against mouse RAW264 cells at 3 to 30 uM by MTT assay; assay type: cell-based

Row | Compound | inhibition (Mus musculus) | Activity [1]
1 | C=CCC/C=C/C=C/C1C/C(C)=C/[C@@H](OC)C[C@@H]2O[C@](O)(CC(=O)O1)CC(O[C@@H]1O[C@@H](C)[C@H](O)[C@@H](OC)[C@H]1OC)[C@@H]2C (stereo not given in full) | Dose-dependent effect | Non-Toxic
2 | C#CCCC/C=C/C=C/C1C/C(C)=C/[C@@H](OC)C[C@@H]2O[C@@](O)(CC(O[C@@H]3O[C@@H](C)[C@H](O)[C@@H](O)[C@H]3OC)[C@@H]2C)[C@H](C)C(=O)O1 (stereo not given in full) | Dose-dependent effect | Non-Toxic
3 | C=CCC/C=C/C=C/C1C/C(C)=C/[C@@H](OC)C[C@@H]2O[C@@](O)(CC(O[C@@H]3O[C@@H](C)[C@H](O)[C@@H](OC)[C@H]3OC)[C@@H]2C)[C@H](C)C(=O)O1 (stereo not given in full) | Dose-dependent effect | Non-Toxic
4 | C=CCC/C=C/C=C/C1C/C(C)=C/[C@@H](OC)C[C@@H]2O[C@@](O)(CC(O[C@@H]3O[C@@H](C)[C@H](O)[C@@H](O)[C@H]3OC)[C@@H]2C)[C@H](C)C(=O)O1 (stereo not given in full) | Dose-dependent effect | Non-Toxic
5 | C=CCC/C=C/C=C/C1C/C(C)=C/[C@@H](OC)C[C@H]2CC(O[C@@H]3O[C@@H](C)[C@H](O)[C@@H](OC)[C@H]3OC)C[C@](O)(O2)[C@H](C)C(=O)O1 (stereo not given in full) | Dose-dependent effect | Non-Toxic
